Measurements published in patent publication US20070059364A1, “Active substance combination comprising a compound with npy receptor affinity and a compound with 5-ht6 receptor affinity” (Laboratorios Del Dr. Esteve S.A., priority 2003, published 2007).
Counter-ions that a name gives are not always drawn.

Assays:
[1] = target: T1, Neuropeptide Y2 receptor (Rattus norvegicus, UniProt Q9ERC0); assay: Binding to Neuropeptide Y2, Method (III), [125I]-PYY3-36, rat hypoccampus membranes; settings: [125I]-PYY(3-36)
T1 construct: from tissue; host or cells: rat hippocampus membranes (male Wistar rats)
T1 sequence (Q9ERC0 1-381): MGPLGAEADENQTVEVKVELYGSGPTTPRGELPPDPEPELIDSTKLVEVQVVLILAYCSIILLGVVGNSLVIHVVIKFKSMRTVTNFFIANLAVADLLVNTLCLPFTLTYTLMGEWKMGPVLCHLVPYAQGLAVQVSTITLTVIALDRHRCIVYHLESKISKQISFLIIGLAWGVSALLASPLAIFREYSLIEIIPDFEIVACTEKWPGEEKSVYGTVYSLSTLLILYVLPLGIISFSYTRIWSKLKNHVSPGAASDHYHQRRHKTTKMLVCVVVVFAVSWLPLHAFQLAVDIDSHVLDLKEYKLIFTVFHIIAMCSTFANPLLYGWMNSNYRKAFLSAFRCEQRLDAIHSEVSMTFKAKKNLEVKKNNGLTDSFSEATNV
Protocol: Binding to Neuropeptide Y2
(§1) Male Wistar rats are sacrificed by decapitation, their brains are rapidly removed and the hypoccampus is dissected. Homogenization is performed in cold conditions in the buffer: 120 mM NaCl, 4.7 mM KCl, 2.2 mM CaCl2, 1.2 mM KH2PO4, 1.2 mM MgSO4, 25 mM NaHCO3, 5.5 mM glucose, pH 7.4, by means of a Ultra-Turrax homogenizer for 15 seconds at 13,500 rpm. The ratio between fresh tissue weight and buffer volume is of ten times. The membrane is centrifuged for 10 min at 48,000 g. The supernatant is discarded and the pellet is washed, resuspended and recentrifuged two more times. The final membrane resuspension is performed in the buffer: 120 mM NaCl, 4.7 mM KCl, 2.2 mM CaCl2, 1.2 mM KH2PO4, 1.2 mM MgSO4, 25 mM NaHCO3, 5.5 mM glucose, 0.1% BSA, 0.05% bacitracin, pH 7.4, at a 90 ml/g ratio of fresh issue. […] Incubation volume: 500 μl. […] The filters are cold-washed three times with three milliliters of the same buffer used in homogenization. […] Non-specific binding is determined in the presence of 1 μM of pNPY (Neuropeptide Y of porcine origin). The assays are performed in triplicate.

[2] = target: T2, recombinant human 5HT6 receptor (Homo sapiens, UniProt P50406); assay: Binding to the 5HT6 serotonin receptor, [3H]-LSD, HEK-293 cell membranes
T2 construct: purchased Receptor Biology; host or cells: HEK-293 cell membranes
T2 sequence (P50406 whole entry): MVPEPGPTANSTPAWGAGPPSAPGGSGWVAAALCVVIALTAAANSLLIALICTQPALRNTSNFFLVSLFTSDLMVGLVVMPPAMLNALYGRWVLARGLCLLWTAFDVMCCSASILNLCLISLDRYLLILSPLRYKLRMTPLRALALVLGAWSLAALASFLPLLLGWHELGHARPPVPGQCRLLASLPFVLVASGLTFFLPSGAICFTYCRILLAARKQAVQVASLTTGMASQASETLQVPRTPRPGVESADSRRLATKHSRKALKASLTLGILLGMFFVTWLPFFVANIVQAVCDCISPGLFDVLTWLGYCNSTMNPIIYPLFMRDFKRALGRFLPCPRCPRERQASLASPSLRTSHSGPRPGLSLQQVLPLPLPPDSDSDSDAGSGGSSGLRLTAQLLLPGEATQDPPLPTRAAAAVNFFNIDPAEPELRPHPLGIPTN
Protocol: Binding to the 5HT6 Serotonin Receptor
The respective part of the literature descriptions is incorporated here by reference and form part of the disclosure. […] The assays are carried out in triplicate.

[3] = target: T3, Neuropeptide Y5 receptor (Rattus norvegicus, UniProt Q63634); assay: Neuropeptide Y5 receptor binding, Method (I), [125I]-PYY3-36 with BIBP 3226, rat cortex membranes; settings: [125I]-PYY(3-36), BIBP 3226 sat.
T3 construct: from tissue; host or cells: rat brain cortex membranes (male Wistar rats)
T3 sequence (Q63634 1-445): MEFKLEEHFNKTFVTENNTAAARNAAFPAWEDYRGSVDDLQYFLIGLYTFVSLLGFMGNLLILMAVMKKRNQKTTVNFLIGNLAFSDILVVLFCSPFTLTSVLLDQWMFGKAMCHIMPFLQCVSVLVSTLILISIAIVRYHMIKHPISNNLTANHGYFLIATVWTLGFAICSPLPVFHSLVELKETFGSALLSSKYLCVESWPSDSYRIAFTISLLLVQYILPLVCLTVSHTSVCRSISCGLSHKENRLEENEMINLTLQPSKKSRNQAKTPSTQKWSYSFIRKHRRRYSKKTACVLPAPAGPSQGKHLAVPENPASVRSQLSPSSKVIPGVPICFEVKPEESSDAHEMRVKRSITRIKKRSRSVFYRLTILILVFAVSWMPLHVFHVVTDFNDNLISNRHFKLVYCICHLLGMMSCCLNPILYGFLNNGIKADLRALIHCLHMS
Protocol: as §1, with “the cortex” for “the hypoccampus”, “of twenty” for “of ten”, “recentrifuged three” for “recentrifuged two”, “times.” for “times. The final membrane resuspension is performed in the buffer: 120 mM NaCl, 4.7 mM KCl, 2.2 mM CaCl2, 1.2 mM KH2PO4, 1.2 mM MgSO4, 25 mM NaHCO3, 5.5 mM glucose, 0.1% BSA, 0.05% bacitracin, pH 7.4, at a 90 ml/g ratio of fresh issue.”, “with two” for “with three”

[4] = target: T4, rat Y5 receptor (Rattus norvegicus, UniProt Q63634); assay: Neuropeptide Y5 receptor binding, Method (II), [125I]-PYY, C6 cells transfected with rat Y5 receptor; settings: Y5 rat recombinant receptor, cell C6
T4 construct: expressed in transfected cells; host or cells: C6 cells
T4 sequence (Q63634 1-445): T3 sequence (Q63634 1-445)
Protocol: Neuropeptide Y5 Receptor Binding Studies:
The experimental protocol follows the method described by Y. Hu, B. T. Bloomquist et al. in Y. Hu, B. T. Bloomquist et al., The Journal of Biological Chemistry, 1996, 271, 26315-26319 with modifications. Cells C6 were transfected with the rat Y5 receptor. The cells were grown under standard culture conditions in 150 cm^2 dishes and they were harvested using a rubber scraper and 10 ml PBS. The cells from five dishes were collected and centrifuged 2.500 g for 5 min. The pellet was washed by resuspending in 3 ml buffer (Tris-HCl 10 mM, pH 7.4), homogenized using a Potter S homogenizer, 10 strokes at 600 rpm and centrifuged in cold conditions at 48.000 g for 20 min (4° C.). The resulting pellet was resuspended in cold 8 ml membrane buffer (Tris-HCl 25 mM, NaCl 120 mM, KCl 5 mM, KH2PO4 1, 2 mM, CaCl2 2, 5 mM, MgSO4 1, 2 mM, BSA 0.15 mg/ml, Bacitracine 0.5 mg/ml, pH 7, 4) and rehomogenized using the Potter S, 10 strokes at 600 rpm. The protein concentration of the used membrane in the incubation was approximately 40 μg/ml. The radioligand is [^125I]-PYY in a concentration of 100 pM. The incubation volume is 200 μl. […] Non-specific binding is determined in the presence of 1 μM of NPY. […]

Structure (SMILES) | melting point | other results
Cl.O=C(CN1CCC(N2C(=O)OCc3ccccc32)CC1)Nc1ccc2c(c1)-c1ccccc1C2=O [Example 3a, 2-[4-(2-oxo-4H-benzo[d][1,3]oxazin-1-yl)-piperidin-1-yl]-N-(9-oxo-9H-fluoren-3-yl)-acetamide hydrochloride] | > 275 °C | Ki [1]: > 1000 nM
CN(C)CCn1ccc2c(NS(=O)(=O)CCc3cccc4ccccc34)cccc21 [Example 5d, N-[1-(2-dimethylaminoethyl)-1H-indole-4-yl]-2-(naphthalene-1-yl)-ethanesulfonamide] | 47 to 54 °C | inhibition at 1 µM ([2]; 10^−6 M, compounds of general formula (Id), Table 1d): 98.1%
CN(C)CCn1ccc2ccc(NS(=O)(=O)c3ccc(-c4ccccc4)cc3)cc21 [Example 5f, N-[1-(2-Dimethylaminoethyl)-1H-indol-6-yl]-4-phenylbenzenesulfonamide] |  | Ki ([2]; compounds of general formula (If), Table 1f): 129 nM
O=C(CN1CCC(N2C(=O)OCc3ccccc32)CC1)Nc1ccc2c(c1)CCCC2=O [Example 6a, 2-[4-(2-oxo-4H-benzo[d][1,3]oxazin-1-ylipiperidin-1-yl]-N-(5-oxo-5,6,7,8-tetrahidro-naphthalene-2-yl)-acetamide hydrochloride] |  | Ki [3]: 18.4 nM; Ki [1]: > 1000 nM
Cc1ccc2c(c1)COC(=O)N2C1CCN(CC(=O)Nc2ccc3c(c2)-c2ccccc2C3=O)CC1.Cl [Example 20a, 2-[4-(6-methyl-2-oxo-4H-benzo[d][1,3]oxazin-1-yl)-piperidin-1-yl]-N-(9-oxo-9H-fluoren-3-yl)-acetamide hydrochloride] | 250 to 252 °C | Ki [1]: > 1000 nM
O=S(=O)(CCc1cccc2ccccc12)Nc1ccc2c(ccn2CCCN2CCCCC2)c1 [Example 48e, 2-(naphth-1-yl)-N-(1-(3-(piperidin-1-yl)propyl)-1H-indol-5-yl)ethanesulfonamide] | 59 to 61 °C | 
O=S(=O)(Nc1ccc2c(ccn2CCCN2CCCCC2)c1)c1ccc(Oc2ccccc2)cc1 [Example 49e, 4-phenoxy-N-(1-(3-(piperidin-1-yl)propyl)-1H-indol-5-yl)benzenesulfonamide] | 64 to 66 °C | 
O=S(=O)(Nc1ccc2[nH]cc(CCN3CCOCC3)c2c1)c1ccc(-c2ccccc2)cc1 [Example 51c, N-{3-[2-(morpholin-4-yl)ethyl]-1H-indol-5-yl}-4-phenylbenzenesulphonamide] | 225 to 228 °C | 
O=S(=O)(Nc1ccc2c(ccn2CCCN2CCCCC2)c1)c1cc(Cl)c(Cl)s1 [Example 51e, 4,5-dichloro-N-(1-(3-(piperidin-1-yl)propyl)-1H-indol-5-yl)thiophene-2-sulfonamide] | 70 to 72 °C | 
O=S(=O)(Nc1ccc2c(ccn2CCCN2CCCCC2)c1)c1cccc2c(Cl)cccc12 [Example 52e, 5-chloro-N-(1-(3-(piperidin-1-yl)propyl)-1H-indol-5-yl)naphthalene-1-sulfonamide] | 92 to 96 °C | 
CN1CCN(CCc2c[nH]c3ccc(NS(=O)(=O)c4cccc5c(Cl)cccc45)cc23)CC1 [Example 53c, N-[3-(4-methylpiperazin-1-yl)ethyl-1H-indol-5-yl]-5-chloronaphthalene-1-sulphonamide] | 246 to 249 °C | 
O=C(CN1CCC(N2C(=O)OCc3cc(F)ccc32)CC1)Nc1ccc2ncccc2c1 [Example 111a, 2-[4-(6-Fluoro-2-oxo-4H-benzo[d][1,3]oxazin-1-yl)-piperidin-1-yl]-N-quinolin-6-yl-acetamide] |  | IC50 [4]: 7.7 nM
